Values of other authors, collected in patent publication US11564963B2, “Topical compositions, process of large-scale manufacture, and method of use” (Progeneron, LLC, priority 2017, dated 2023).
≈ marks a conversion by molar mass, not a printed value.

Key:
[1] = rats
[2] = test system: Gram-negative bacteria and fungi
[3] = 20° C.

For OCc1ccccc1 [Benzyl Alcohol], the LD50 [1] is listed as 1.2 gm/kg.

In the case of [H]/N=C(\N/C(=N/[H])NCCCCCCNC(=N)NC(=N)Nc1ccc(Cl)cc1)Nc1ccc(Cl)cc1 [Chlorhexidine], the “concentrations required for Gram-negative bacteria and fungi” value [2] is given as 10 to 73 µg/mL.

In the case of NC(=O)c1cccnc1 [Niacinamide], the pKa is listed as “about 3.35” and the solubility in water [3] is listed as 691 g/L (≈ 5660 mM).
